Values quoted from earlier work as cited in Sander's compilation of Henry's law constants.
“And” between values parts separate entries of the source, which are not always exact repeats. Equal entries are not always repeated. Each block holds one molecule with its values, some of them ahead of it.

Assay: Henry solubility constant Hcp at 298.15 K (mol/(m3 Pa))
Conditions: cited value
[1] = reference: Barcelo and Hennion (1997)
[2] = reference: Gaffney and Senum (1984)
[3] = reference: Burkholder et al. (2015)
[4] = reference: Burkholder et al. (2019)
[5] = reference: Sander et al. (2011)
[6] = reference: Fogg and Sangster (2003)
[7] = reference: Hine and Weimar (1965)
[8] = reference: Sander et al. (2006)
[9] = reference: Murphy et al. (1983b)
[10] = reference: Meynier et al. (2003)
[11] = reference: Wania and Dugani (2003)

Compound: CCOC1Oc2ccc(OS(C)(=O)=O)cc2C1(C)C (stereo not drawn) [ethofumesate]
Henry solubility constant Hcp [1]: 45

Henry solubility constant Hcp (reference: Brockbank (2013)): 0.052
Compound: CCC/C=C(/C=O)CC [2-ethyl-2-hexenal]

Compound: ClCCOCOCCCl [bis-(2-chloroethoxy)-methane]
Henry solubility constant Hcp (reference: Goldstein (1982)): 8.8 and 26

Compound: CCOC(=O)CC(SP(=S)(OC)OC)C(=O)OCC (stereo not drawn) [malathion]
Henry solubility constant Hcp [1]: 4.3 | Henry solubility constant Hcp (reference: Brockbank (2013)): 20

Compound: Cc1ccccc1O [1-hydroxy-2-methylbenzene]
Henry solubility constant Hcp (reference: Brockbank (2013)): 6.7 | Henry solubility constant Hcp [2]: 8.2 | Henry solubility constant Hcp (reference: Howard (1989)): 6.2

Henry solubility constant Hcp (reference: Brockbank (2013)): 2
Compound: O=COCc1ccccc1 [benzyl methanoate]

Henry solubility constant Hcp (reference: Brockbank (2013)): 0.04
Compound: CCCCC(=O)CCCC [5-nonanone]

Henry solubility constant Hcp (reference: Brockbank (2013)): 0.022
Compound: CCCCOC(=O)CC [butyl propanoate]

Henry solubility constant Hcp (reference: Brockbank (2013)): 0.019
Compound: c1ccc(Oc2ccccc2)cc1 [diphenyl ether]

Compound: COP(=S)(OC)SCN1C(=O)c2ccccc2C1=O [phosmet]
Henry solubility constant Hcp [1]: 10

Compound: OCC(F)(F)F [2,2,2-trifluoroethanol]
Henry solubility constant Hcp [3]: 0.47 | Henry solubility constant Hcp [4]: 0.47 | Henry solubility constant Hcp [5]: 0.47

Compound: O=NCl [nitrosyl chloride]
Henry solubility constant Hcp [3]: > 0.00049 | Henry solubility constant Hcp [4]: > 0.00049

Henry solubility constant Hcp (reference: Brockbank (2013)): 0.051
Compound: CCCCCCC(=O)CC [3-nonanone]

Compound: CC(C)=O [propanone]
Henry solubility constant Hcp (reference: Brockbank (2013)): 0.29 | Henry solubility constant Hcp [3]: 0.27 | Henry solubility constant Hcp [4]: 0.27 | Henry solubility constant Hcp (reference: Butler and Ramchandani (1935)): 0.3 | Henry solubility constant Hcp (reference: Cabani et al. (1981)): 0.27 | Henry solubility constant Hcp [6]: 0.26 | Henry solubility constant Hcp [2]: 0.3 | Henry solubility constant Hcp [7]: 0.031 | Henry solubility constant Hcp (reference: Poulain et al. (2010)): 0.33 | Henry solubility constant Hcp [8]: 0.28 | Henry solubility constant Hcp [5]: 0.27 | Henry solubility constant Hcp (reference: Schaffer and Daubert (1969)): 0.22

Henry solubility constant Hcp (reference: Brockbank (2013)): 0.11
Compound: CC(=O)C(C)C [3-methyl-2-butanone]

Henry solubility constant Hcp (reference: Brockbank (2013)): 8.6e-06
Compound: C=CCCCCCCCC [1-decene]

Compound: Clc1ccccc1-c1ccccc1Cl [2,2'-dichlorobiphenyl]
Henry solubility constant Hcp [9]: 0.045

Compound: C=C [ethene]
Henry solubility constant Hcp [3]: 5.9e-05 | Henry solubility constant Hcp [4]: 5.9e-05 | Henry solubility constant Hcp (reference: Deno and Berkheimer (1960)): 4.7e-05 | Henry solubility constant Hcp (reference: Hayduk (1994)): 4.7e-05 | Henry solubility constant Hcp [8]: 5.9e-05 | Henry solubility constant Hcp [5]: 5.9e-05

Compound: CCNc1nc(NC(C)C)nc(SC)n1 [ametryn]
Henry solubility constant Hcp [1]: 82

Henry solubility constant Hcp (reference: Brockbank (2013)): 4.6e-08
Compound: FC(F)(F)C(F)(F)C(F)(F)C(F)(F)C(F)(F)F [dodecafluoropentane]

Henry solubility constant Hcp (reference: Brockbank (2013)): 0.0076
Compound: CCCCOCC [1-ethoxy-butane]

Compound: CCOC(=O)C(F)(F)F [trifluoroethanoic acid, ethyl ester]
Henry solubility constant Hcp [3]: 0.00089 | Henry solubility constant Hcp [4]: 0.00089 | Henry solubility constant Hcp [5]: 0.00089

Henry solubility constant Hcp (reference: Brockbank (2013)): 0.021 | Henry solubility constant Hcp (reference: Goldstein (1982)): 0.024 | Henry solubility constant Hcp [10]: 0.017
Compound: CC(=O)OCCC(C)C [3-methylbutyl ethanoate]

Henry solubility constant Hcp (reference: Brockbank (2013)): 0.35
Compound: CCCCCCN [1-hexanamine]

Compound: CNC=O [N-methylmethanamide]
Henry solubility constant Hcp (reference: Brockbank (2013)): 1400 | Henry solubility constant Hcp [3]: 1400 | Henry solubility constant Hcp [4]: 1400

Compound: C=C(Cl)Cl [1,1-dichloroethene]
Henry solubility constant Hcp (reference: Brockbank (2013)): 0.00031 | Henry solubility constant Hcp [3]: 0.00037 | Henry solubility constant Hcp [4]: 0.00037 | Henry solubility constant Hcp [6]: 0.0004 | Henry solubility constant Hcp (reference: Goldstein (1982)): 0.00064

Henry solubility constant Hcp (reference: Brockbank (2013)): 8.2
Compound: Cc1ccc(C)c(O)c1 [1-hydroxy-2,5-dimethylbenzene]

Henry solubility constant Hcp (reference: Brockbank (2013)): 0.018
Compound: CCCOC(=O)CCC [propyl butanoate]

Henry solubility constant Hcp (reference: Brockbank (2013)): 0.33
Compound: CCCCCC(C)O (stereo not drawn) [2-heptanol]

Henry solubility constant Hcp (reference: Brockbank (2013)): 1.6
Compound: COC(=O)c1ccccc1O [2-hydroxybenzoic acid methyl ester]

Compound: C=CCSC [allyl methyl sulfide]
Henry solubility constant Hcp [3]: 0.0042 | Henry solubility constant Hcp [4]: 0.0042

Compound: CCCCC#N [pentanenitrile]
Henry solubility constant Hcp (reference: Brockbank (2013)): 0.16 | Henry solubility constant Hcp (reference: Plyasunov et al. (2006)): 0.14

Henry solubility constant Hcp (reference: Brockbank (2013)): 0.072
Compound: CCCCC(=O)CC [3-heptanone]

Henry solubility constant Hcp (reference: Brockbank (2013)): 0.0009
Compound: CC(C)c1ccccc1 [(2-propyl)-benzene]

Henry solubility constant Hcp (reference: Brockbank (2013)): 94
Compound: c1ccc2c(c1)[nH]c1ccccc12 [carbazole]

Henry solubility constant Hcp (reference: Brockbank (2013)): 0.37
Compound: CCCC(O)CC (stereo not drawn) [3-hexanol]

Compound: Nc1ccc([N+](=O)[O-])cc1 [4-nitrobenzenamine]
Henry solubility constant Hcp (reference: Brockbank (2013)): 8700

Compound: COP(=S)(OC)Oc1ccc([N+](=O)[O-])cc1 [methylparathion]
Henry solubility constant Hcp [1]: 0.47

Compound: [CH3][Hg][Cl] [chloromethylmercury]
Henry solubility constant Hcp (reference: WHO (1990)): 20

Henry solubility constant Hcp (reference: Brockbank (2013)): 0.017
Compound: CCCCCOC=O [pentyl methanoate]

Compound: CCC(C)Br (stereo not drawn) [2-bromobutane]
Henry solubility constant Hcp (reference: Brockbank (2013)): 0.00088

Compound: CC(C)(C)C(O)(CCc1ccc(Cl)cc1)Cn1cncn1 (stereo not drawn) [tebuconazole]
Henry solubility constant Hcp [1]: 1100

Henry solubility constant Hcp (reference: Brockbank (2013)): 0.0097
Compound: CCC(C)(C)OC [2-methoxy-2-methylbutane]

Compound: C[Si](Cn1cncn1)(c1ccc(F)cc1)c1ccc(F)cc1 [flusilazole]
Henry solubility constant Hcp [1]: 27

Compound: Fc1c(F)c(F)c(F)c(F)c1F [hexafluorobenzene]
Henry solubility constant Hcp (reference: Brockbank (2013)): 0.0003

Henry solubility constant Hcp (reference: Brockbank (2013)): 0.038
Compound: CCOC(=O)CC [ethyl propanoate]

Henry solubility constant Hcp (reference: Brockbank (2013)): 0.0002
Compound: C1=CCCCCC1 [cycloheptene]

Compound: O=C(O)CBr [bromoethanoic acid]
Henry solubility constant Hcp [3]: 1500 | Henry solubility constant Hcp [4]: 1500 | Henry solubility constant Hcp [5]: 1500

Compound: ClCCCCCl [1,4-dichlorobutane]
Henry solubility constant Hcp (reference: Brockbank (2013)): 0.02

Henry solubility constant Hcp (reference: Brockbank (2013)): 0.02 | Henry solubility constant Hcp [6]: 0.022
Compound: Cc1cccc2ccccc12 [1-methylnaphthalene]

Henry solubility constant Hcp (reference: Brockbank (2013)): 7.2e-06
Compound: CCCCC [pentane]

Compound: COC[C@H](C)N(C(=O)CCl)c1c(C)csc1C [dimethenamid-p]
Henry solubility constant Hcp (reference: MacBean (2012b)): 2100

Compound: Brc1cc(Br)c(Oc2cc(Br)c(Br)cc2Br)cc1Br [2,2',4,4',5,5'-hexabromodiphenyl ether]
Henry solubility constant Hcp [11]: 2.9

Henry solubility constant Hcp (reference: Brockbank (2013)): 0.0015
Compound: CCCCS [1-butanethiol]

Compound: Brc1ccc(Oc2c(Br)cc(Br)cc2Br)c(Br)c1 [2,2',4,4',6-pentabromodiphenyl ether]
Henry solubility constant Hcp [11]: 2.6

Compound: ClC1C(Cl)C(Cl)C(Cl)C(Cl)C1Cl (stereo not drawn) [γ-1,2,3,4,5,6-hexachlorocyclohexane]
Henry solubility constant Hcp (reference: McCarty (1980)): 31 | Henry solubility constant Hcp (reference: Xiao et al. (2004)): 3.7 and 3.3

Henry solubility constant Hcp [10]: 0.2
Compound: CCC/C=C/C=O [(E)-2-hexenal]

Compound: C=CC(C)=O [3-buten-2-one]
Henry solubility constant Hcp [3]: 0.4 | Henry solubility constant Hcp [4]: 0.4

Compound: O=C(O)C(Br)Br [dibromoethanoic acid]
Henry solubility constant Hcp [3]: 2300 | Henry solubility constant Hcp [4]: 2300 | Henry solubility constant Hcp [5]: 2300

Compound: Cc1ccccc1N [2-methylbenzenamine]
Henry solubility constant Hcp (reference: Brockbank (2013)): 4.8

Compound: O=C=S [carbon oxide sulfide]
Henry solubility constant Hcp [3]: 0.0002 | Henry solubility constant Hcp [4]: 0.0002 | Henry solubility constant Hcp [8]: 0.0002 | Henry solubility constant Hcp [5]: 0.0002

Compound: ClC1=C(Cl)C2(Cl)C3C(Cl)C=CC3C1(Cl)C2(Cl)Cl (stereo not drawn) [heptachlor]
Henry solubility constant Hcp [1]: 8.8e-05 | Henry solubility constant Hcp (reference: McCarty (1980)): 0.0043 | Henry solubility constant Hcp (reference: Meylan and Howard (1991)): 0.0067

Compound: N#Cc1c(Cl)cccc1Cl [2,6-dichlorobenzenenitrile]
Henry solubility constant Hcp [1]: 0.015

Henry solubility constant Hcp (reference: Brockbank (2013)): 1.5
Compound: O=C1CCCCC1 [cyclohexanone]

Compound: CCCCOCCOC(C)=O [2-butoxyethyl ethanoate]
Henry solubility constant Hcp (reference: Brockbank (2013)): 1.8

Compound: CC(C)O [2-propanol]
Henry solubility constant Hcp (reference: Brockbank (2013)): 1.2 | Henry solubility constant Hcp [3]: 1.2 | Henry solubility constant Hcp [4]: 1.2 | Henry solubility constant Hcp [6]: 1.2 | Henry solubility constant Hcp [7]: 1.7 | Henry solubility constant Hcp [8]: 1.3 | Henry solubility constant Hcp [5]: 1.3

Compound: CCc1ccccc1N [2-ethylaniline]
Henry solubility constant Hcp (reference: Brockbank (2013)): 2.6

Henry solubility constant Hcp (reference: Brockbank (2013)): 8.5e-05
Compound: C#CCCCCCCC [1-nonyne]

Henry solubility constant Hcp (reference: Brockbank (2013)): 0.023
Compound: CCC(C)OC(C)=O (stereo not drawn) [2-butyl ethanoate]

Henry solubility constant Hcp (reference: Brockbank (2013)): 3e-05
Compound: C=CCCC [1-pentene]

Compound: CCCCC(CC)COC(=O)c1ccccc1C(=O)OCC(CC)CCCC (stereo not drawn) [bis(2-ethylhexyl)-phthalate]
Henry solubility constant Hcp (reference: Petrasek et al. (1983)): 82

Henry solubility constant Hcp (reference: Brockbank (2013)): 2.8e-05
Compound: CC1CCCC1 [methylcyclopentane]

Compound: Nc1ccccc1 [aminobenzene]
Henry solubility constant Hcp (reference: Brockbank (2013)): 4.9

Compound: c1cc2c3c(cccc3c1)CC2 [acenaphthene]
Henry solubility constant Hcp (reference: Brockbank (2013)): 0.072 | Henry solubility constant Hcp [6]: 0.055 | Henry solubility constant Hcp (reference: Goldstein (1982)): 0.041 | Henry solubility constant Hcp (reference: HSDB (2015)): 0.064 | Henry solubility constant Hcp (reference: McCarty (1980)): 0.052

Compound: Clc1ccc(Cl)c(-c2cc(Cl)ccc2Cl)c1 [2,2',5,5'-tetrachlorobiphenyl]
Henry solubility constant Hcp [9]: 0.038

Compound: CN [methanamine]
Henry solubility constant Hcp [3]: 0.89 | Henry solubility constant Hcp [4]: 0.89

Henry solubility constant Hcp [1]: 8.2
Compound: CN(C)C(=O)Nc1ccc(Cl)c(Cl)c1 [diuron]

Henry solubility constant Hcp (reference: Brockbank (2013)): 0.058
Compound: CCC(=O)OC [methyl propanoate]

Compound: CCCC(C)=O [2-pentanone]
Henry solubility constant Hcp (reference: Brockbank (2013)): 0.13 | Henry solubility constant Hcp (reference: Mackay et al. (1995)): 0.17

Henry solubility constant Hcp (reference: Brockbank (2013)): 5.7e-05
Compound: CC=C(C)C [2-methyl-2-butene]
